US7692038B2, “Crystalline forms” (Pfizer, Inc., priority 2006, dated 2010)

Key:
[1] = Hygroscopicity by dynamic vapour sorption (DVS), water sorption and desorption; format: physicochemical; conditions: 30° C.
Protocol: Hygroscopicity was assessed for forms I and II using dynamic vapour sorption (DVS). The samples were characterised using a Surface Measurement Systems Ltd, dynamic vapour sorption equipment, model DVS-1. The analysis was conducted at 30° C. with a nitrogen gas flow of 200 cc/min. Water sorption and desorption were determined in the range 0 to 90% relative humidity (RH) using 15% RH intervals. Exposure was for a minimum of two hours at each humidity, or until the rate of weight change was less than 0.0005%/minute (averaged over 10 minutes). Sample weights were in the range 23-36 mg. The samples were weighed using a CAHN D-200, seven place digital recording balance, which is an integral part of the equipment. The results are tabulated below in Tables 6 and 7 and plotted in FIGS. 15 and 16.

[2] = Relative thermodynamic stability of polymorphs (slurry conversion); format: physicochemical; conditions: ambient temperature
Protocol: The crystalline forms of the invention may be prepared by the processes described below. The skilled person will understand that the preparation of particular polymorphic forms of a compound can sometimes be problematic, and that small changes in reaction conditions can sometimes result in an unexpected product. In particular, the presence of seeds in the atmosphere under which the experiment is conducted can have a decisive outcome on the result. The processes described below, however, are generally reliable. […] The form I polymorph is the more kinetically favoured product at ambient temperature and its formation is encouraged by rapid crystallisation techniques such as rapid cooling. Seeding with the desired product will obviously increase success in these preparations. Preparation of form I material is particularly encouraged by the use of a form I seed which contains a mixture of diastereomers due to epimerisation at the modified aspartate residue.
Pure form II may be prepared by slurrying a mixture of forms I and II in acetonitrile at room temperature until full conversion has taken place (typically a few days, e.g. 3 days). The product is then filtered off and dried (e.g. in a vacuum oven). The following procedures are illustrative.
A 40:60 mixture (by weight) of forms I and II was slurried in acetonitrile and left for three days. […]

**Q.** Which “Water Sorption (% w/dry w) Desorption” value ([1]; 15% RH) does the source give for C[C@H](NC(=O)C(=O)Nc1ccccc1C(C)(C)C)C(=O)N[C@@H](CC(=O)O)C(=O)COc1c(F)c(F)cc(F)c1F [Form I, (3S)-3-[N—(N′-(2-tert-butylphenyl)oxamyl)alaninyl]amino-5-(2′,3′,5′,6′-tetrafluorophenoxy)-4-oxopentanoic acid] here?
**A.** 0.015 % w/dry w

**Q.** What about the “Water Sorption (% w/dry w) Sorption” value ([1]; 15% RH) of the same compound?
**A.** 0.018 % w/dry w

**Q.** What about the “Water Sorption (% w/dry w) Desorption” value ([1]; 30% RH) of the same compound?
**A.** 0.025 % w/dry w

**Q.** And the “Water Sorption (% w/dry w) Sorption” value ([1]; 30% RH)?
**A.** 0.028 % w/dry w

**Q.** What about the “Water Sorption (% w/dry w) Desorption” value ([1]; 45% RH) of the same compound?
**A.** 0.037 % w/dry w

**Q.** What about the “Water Sorption (% w/dry w) Sorption” value ([1]; 45% RH) of the same compound?
**A.** 0.049 % w/dry w

**Q.** What about the “Water Sorption (% w/dry w) Desorption” value ([1]; 60% RH) of the same compound?
**A.** 0.055 % w/dry w

**Q.** What about the “Water Sorption (% w/dry w) Sorption” value ([1]; 60% RH) of the same compound?
**A.** 0.072 % w/dry w

**Q.** And the “Water Sorption (% w/dry w) Desorption” value ([1]; 75% RH)?
**A.** 0.105 % w/dry w

**Q.** And the “Water Sorption (% w/dry w) Sorption” value ([1]; 75% RH)?
**A.** 0.110 % w/dry w

**Q.** What about the “Water Sorption (% w/dry w) Desorption” value ([1]; 90% RH) of the same compound?
**A.** 0.208 % w/dry w

**Q.** And the “Water Sorption (% w/dry w) Sorption” value ([1]; 90% RH)?
**A.** 0.208 % w/dry w

**Q.** Which results are given for C[C@H](NC(=O)C(=O)Nc1ccccc1C(C)(C)C)C(=O)N[C@@H](CC(=O)O)C(=O)COc1c(F)c(F)cc(F)c1F [Form II, (3S)-3-[N—(N′-(2-tert-butylphenyl)oxamyl)alaninyl]amino-5-(2′,3′,5′,6′-tetrafluorophenoxy)-4-oxopentanoic acid]?
**A.** Water Sorption (% w/dry w) Desorption ([1]; 15% RH): 0.009 % w/dry w; Water Sorption (% w/dry w) Sorption ([1]; 15% RH): 0.007 % w/dry w; Water Sorption (% w/dry w) Desorption ([1]; 30% RH): 0.015 % w/dry w; Water Sorption (% w/dry w) Sorption ([1]; 30% RH): 0.014 % w/dry w; Water Sorption (% w/dry w) Desorption ([1]; 45% RH): 0.021 % w/dry w; Water Sorption (% w/dry w) Sorption ([1]; 45% RH): 0.020 % w/dry w; Water Sorption (% w/dry w) Desorption ([1]; 60% RH): 0.031 % w/dry w; Water Sorption (% w/dry w) Sorption ([1]; 60% RH): 0.029 % w/dry w; Water Sorption (% w/dry w) Desorption ([1]; 75% RH): 0.044 % w/dry w; Water Sorption (% w/dry w) Sorption ([1]; 75% RH): 0.042 % w/dry w; Water Sorption (% w/dry w) Desorption ([1]; 90% RH): 0.057 % w/dry w; Water Sorption (% w/dry w) Sorption ([1]; 90% RH): 0.057 % w/dry w; Thermodynamic stability of the polymorph [2]: most thermodynamically stable
